Laboratory results reported in PMC12307812 (Nature Communications, 2025).

Tests used:
[1] = biological target: T1, Recombinant Human TMPRSS2 (Homo sapiens, UniProt O15393); experiment: TMPRSS2 biochemical assay (Boc-Gln-Ala-Arg-AMC fluorogenic substrate)
T1 construct: human TMPRSS2 residues 106492, N-terminal 6x His-tag; 6x His-tag (N); purchased Cusabio CSB-YP023924HU; host or cells: yeast
Protocol: Inhibitors of TMPRSS2 were tested using a high throughput activity assay. […] TMPRSS2 (5 µl, 0.018 mg/ml) in assay buffer (50 mM Tris pH 8, 150 mM NaCl, 0.01% Tween20) was dispensed to that, using a BioRAPTR (Beckman Coulter), for a total assay volume of 5 µl.
(§1) After incubation at room temperature for 1 h, fluorescence was measured. […] Raw plate reads for each titration point were normalized relative to a positive control containing no enzyme (0% activity, full inhibition) and a negative control containing DMSO-only wells (100% activity, basal activity). Data normalization was performed using GraphPad Prism (GraphPad Software, San Diego, CA).
(§2) We employed the curve fitting algorithm available in the SciPy package (version 1.10.1)[61] to derive the Hill slope and the IC50 value, along with their corresponding error estimates.

[2] = biological target: T1, Recombinant Human TMPRSS2; experiment: TMPRSS2 biochemical assay with pre-incubation of inhibitor and enzyme; conditions: for inhibition at 2.788 pM: concentration 0.00278767 nM; for inhibition at 8.363 pM: concentration 0.00836301 nM; for inhibition at 25.09 pM: concentration 0.025089 nM; for inhibition at 75.27 pM: concentration 0.0752671 nM; for inhibition at 0.000225801 µM: concentration 0.225801 nM; for inhibition at 0.000677404 µM: concentration 0.677404 nM; for inhibition at 0.00203221 µM: concentration 2.03221 nM; for inhibition at 0.00609663 µM: concentration 6.09663 nM; for inhibition at 0.0182899 µM: concentration 18.2899 nM; for inhibition at 0.0548697 µM: concentration 54.8697 nM; for inhibition at 0.164609 µM: concentration 164.609 nM; for inhibition at 0.493827 µM: concentration 493.827 nM; for inhibition at 1.48148 µM: concentration 1481.48 nM; for inhibition at 4.44444 µM: concentration 4444.44 nM; for inhibition at 13.3333 µM: concentration 13333.3 nM; for inhibition at 40 µM: concentration 40000 nM
Protocol: To that was dispensed TMPRSS2 (5 µl, 0.018 mg/ml) in assay buffer (50 mM Tris pH 8, 150 mM NaCl, 0.01% Tween20) using a BioRAPTR (Beckman Coulter) to give a total reaction volume of 5 µl. […] The final assay conditions are 10 µM peptide, 0.018 mg/ml TMPRSS2 in assay buffer (50 mM Tris-HCl, pH 8, 150 mM NaCl, 0.01% Tween20).
as §1, §2
To model the relationship between the pre-incubation time and the IC50, we use the following equation inspired by the Morse potential:3 ft,a,D,te=D⋅1−exp−a⋅t−te^2 where t is the time, a is the width of the well, D is the IC50 at infinite time (depth of the well) and te is the time at which the IC50 reaches its minimum. Again, we made use of SciPy’s curve fitting method to obtain parameters a, D and te, with their respective error estimates.

T1 sequence (O15393 106-492 limits assumed): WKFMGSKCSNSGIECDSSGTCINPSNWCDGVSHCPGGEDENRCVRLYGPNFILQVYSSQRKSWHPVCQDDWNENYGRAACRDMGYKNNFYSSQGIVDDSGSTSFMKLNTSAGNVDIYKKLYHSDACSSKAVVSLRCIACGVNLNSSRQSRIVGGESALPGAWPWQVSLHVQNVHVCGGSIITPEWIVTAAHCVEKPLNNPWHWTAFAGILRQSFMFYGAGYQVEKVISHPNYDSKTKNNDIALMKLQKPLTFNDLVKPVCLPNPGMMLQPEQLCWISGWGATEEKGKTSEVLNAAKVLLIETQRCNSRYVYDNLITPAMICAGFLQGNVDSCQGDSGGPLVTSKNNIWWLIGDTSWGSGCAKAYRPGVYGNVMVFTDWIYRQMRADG

## CN(C)C(=O)COC(=O)Cc1ccc(OC(=O)c2ccc(NC(=N)N)cc2)cc1 [camostat]
[1]; concentration 0.677404 nM
  inhibition at 0.000677404 µM: 13.8%
[1]; concentration 2.03221 nM
  inhibition at 0.00203221 µM: 36.1%
[1]; concentration 6.09663 nM
  inhibition at 0.00609663 µM: 68.3%
[1]; concentration 18.2899 nM
  inhibition at 0.0182899 µM: 90.6%
[1]; concentration 54.8697 nM
  inhibition at 0.0548697 µM: 102%
[1]; concentration 164.609 nM
  inhibition at 0.164609 µM: 103%
[1]; concentration 493.827 nM
  inhibition at 0.493827 µM: 105%
[1]; concentration 1481.48 nM
  inhibition at 1.48148 µM: 105%
[1]; concentration 4444.44 nM
  inhibition at 4.44444 µM: 104%
[1]; concentration 13333.3 nM
  inhibition at 13.3333 µM: 104%
[1]; concentration 40000 nM
  inhibition at 40 µM: 104%
[2]; pre-incubation 0
  inhibition at 2.788 pM: -8.21%
  inhibition at 8.363 pM: -16.5%
  inhibition at 25.09 pM: -12.1%
  inhibition at 75.27 pM: 11.6%
  inhibition at 0.000225801 µM: 44.8%
  inhibition at 0.000677404 µM: 63.8%
  inhibition at 0.00203221 µM: 78.4%
  inhibition at 0.00609663 µM: 87.8%
  inhibition at 0.0182899 µM: 93.9%
  inhibition at 0.0548697 µM: 95.2%
  inhibition at 0.164609 µM: 94.9%
  inhibition at 0.493827 µM: 96.5%
  inhibition at 1.48148 µM: 97.9%
  inhibition at 4.44444 µM: 97.2%
  inhibition at 13.3333 µM: 98.7%
  inhibition at 40 µM: 98.9%
[2]; pre-incubation 1
  inhibition at 2.788 pM: 6.01%
  inhibition at 8.363 pM: 2.49%
  inhibition at 25.09 pM: 10%
  inhibition at 75.27 pM: 58.4%
  inhibition at 0.000225801 µM: 90.2%
  inhibition at 0.000677404 µM: 93.6%
  inhibition at 0.00203221 µM: 94.9%
  inhibition at 0.00609663 µM: 95.1%
  inhibition at 0.0182899 µM: 94.9%
  inhibition at 0.0548697 µM: 96.1%
  inhibition at 0.164609 µM: 96%
  inhibition at 0.493827 µM: 95.8%
  inhibition at 1.48148 µM: 97.1%
  inhibition at 4.44444 µM: 97.4%
  inhibition at 13.3333 µM: 98.2%
  inhibition at 40 µM: 99.4%
[2]; pre-incubation 4
  inhibition at 2.788 pM: 8.38%
  inhibition at 8.363 pM: 5.55%
  inhibition at 25.09 pM: 35.8%
  inhibition at 75.27 pM: 91%
  inhibition at 0.000225801 µM: 96.5%
  inhibition at 0.000677404 µM: 97.6%
  inhibition at 0.00203221 µM: 97.9%
  inhibition at 0.00609663 µM: 98.2%
  inhibition at 0.0182899 µM: 98%
  inhibition at 0.0548697 µM: 98.6%
  inhibition at 0.164609 µM: 98.2%
  inhibition at 0.493827 µM: 99.2%
  inhibition at 1.48148 µM: 99.4%
  inhibition at 4.44444 µM: 100%
  inhibition at 13.3333 µM: 101%
  inhibition at 40 µM: 102%
[2]; pre-incubation 8
  inhibition at 2.788 pM: 20.8%
  inhibition at 8.363 pM: 10.7%
